Results taken from US8409602B2, “Sealants for fetal membrane repair” (Northwestern University, priority 2009, dated 2013).

What was measured:
fetal membranes [1] = assay: Direct contact-induced apoptosis (TUNEL) in fetal membranes; type: cell-based
Experimental: Toxicity tests. Toxicity of sealants for fetal membrane cells was evaluated using direct contact and elution tests, as per International Organization for Standardization (ISO) 10993-5 guidelines.
Direct contact cytotoxicity. […] 4.5 software (Carl Zeiss).

epididymal fat pad = assay: Material-only implantation at the murine epididymal fat pad; set-up: species or system C57BL6 mice; conditions: mouse, in vivo
Experimental: Material-only implantation. Healthy, age-matched male C57BL6 mice (Jackson Laboratories, Bar Harbor, Me.) were anesthetized with nebulized isoflurane (IsoThesia; Butler/Abbott Laboratories, North Chicago, Ill.) and intraperitoneal injection of 2% Avertin (2,2,2-tribromoethanol, Sigma) at 0.3 mg/g body weight, prior to shaving of the abdomen and sterile preparation of the surgical site. The left epididymal fat pad was exposed through midline lower abdominal incision and manipulation of the tissue flap. This thin, well-vascularized tissue is analogous to the omentum of larger mammals and has dimensions on the order of 1.5—1.5 cm. Sterile, two-component mixing and adhesive delivery was achieved by a dual-barrel blending connector with mixer device (Micromedics, St Paul, Minn.) containing sterile-filtered 300 mg/mL cPEG and 0.056 M sodium periodate, respectively.
Following topical delivery of approximately […] adhesive, the deposition site was left undisturbed for 1 min. The sample site was then manually reinserted into the lower abdominal cavity and the incision closed with double-layer suture. Mice were monitored postoperatively until conscious recovery. At three days, two weeks, six weeks, and one-year post-implant, the adhesive and associated adipose tissue was surgically removed from anesthetized mice, prior to euthanasia. […]

fetal membranes [2] = tested on: fetal membranes
Experimental: Direct contact cytotoxicity. Direct contact studies were performed with term fetal membranes obtained from three cases. The amniotic layer was chosen for sealant application (FIG. 1A) because this layer was proposed to be the strength-bearing layer of fetal membranes and major determinant for PPROM.^31 2×1 cm patches of freshly harvested fetal membranes were placed into wells of 6-well plates with amnion layer up. […] Membranes covered with sealant were covered with 3 mL culture medium (Ham's F-12/DMEM supplemented with 10% FBS, 100 U/ml penicillin, and 100 μg/ml streptomycin) and cultured for 24 h at 37° C. […] Deparaffinized sections were either stained with hematoxylin-eosin (H/E), or stained for apoptotic cells using TUNEL technology (Terminal deoxynucleotidyl transferase dUTP nick end labeling; In Situ Cell Death Detection Kit, Fluorescein (Roche Diagnostics GmbH, Mannheim, Germany). For total cell counts, all cell nuclei were counterstained with 4′,6-diamidin-2′-phenylindol-dihydrochlorid (DAPI; Sigma, Buchs, Switzerland). The histologic images were taken with a Zeiss Axiovert 200M fluorescent microscope (Carl Zeiss, Goettingen, Germany) equipped with an Zeiss AxioCam MRc digital camera and analysed with AxioVision Rel. […] One tissue section per case was analysed, taking four optical fields per section for analysis.

## four-armed catechol-terminated polyethylene glycol (cPEG) [cPEG adhesive]
Fetal membranes [1]
  apoptosis compared with control: did not enhance apoptosis over control
Epididymal fat pad
  immediate local reaction at deposition site: no immediate visible inflammation or redness
  non-specific postsurgical adhesions: no evidence of non-specific postsurgical adhesions
Fetal membranes [2]
  effect on membrane morphology: normal membrane morphology appeared maintained
